“And” between values parts separate entries of the source, which are not always exact repeats. Equal values may be shown once. Read-outs that look alike come from different tables or passages of the source.
Experiments:
[1] = system: lung tumors in Ki-ras^G12C mice; experiment: Ki-ras^G12C bi-transgenic mouse model of lung tumorigenesis, DOX-induced; assay type: in vivo
Method: Tumors were fixed with 4% paraformaldehyde for 24 h and incubated in 70% ethanol for 48 h prior to embedding in paraffin. The embedded tumors were cut into five micron thick sections and stained with hematoxylin and eosin to determine morphology. Cell proliferation in the tumors was detected by immunostaining with an antibody to Ki67 (1:25; Abcam, Cambridge, Mass.) using the labeled streptavidin biotin method, as described previously (Floyd et al., Carcinogenesis, 2005, 26:2196-2206). Stained sections were visualized and photographed with a video image analysis system (Scion, Inc., Frederick, Md.) and public domain software (NIH Image v1.60). A computer-assisted counting technique with a grid filter to select cells was used to quantify the immunohistochemical staining of Ki67 (Stute et al., Fertil. Steril., 2004, 82:1160-1170). The positive cells were expressed as a percentage of the total cell number examined (100 cells sampled from each tissue site within each lung tumor section).
A novel model for the induction of lung tumors in mice, a bi-transgenic mouse that expresses the mutant human Ki-ras^G12C allele in a tet-inducible and lung-specific manner was generously supplied by Dr. Mark Miller of the Department of Cancer Biology, Wake Forest University School of Medicine, for use in these experiments.
For these experiments, sixteen (16) bi-transgenic mice were produced by crossing mono-transgenic Ki-ras^G12C mice with Clara cell secretory protein-reverse tet trans-activator (CCSP-rtTA) transgenic mice. The presence of both transgenes was verified by genotyping.

[2] = system: EA.hy.926 cells; experiment: Tube formation of endothelial cells in Matrigel; assay type: cell-based, human; conditions: over the range of 0.5 to 100 nM
Method: These cells are a transformed human endothelial cell line derived from umbilical vein endothelial cells. They retain their endothelial phenotype and were previously used to study angiogenesis.
After a 16 h incubation period to allow tube formation, cultures were photographed and branch points were counted, to quantify tube formation.

[3] = system: COX-1 mRNA; experiment: COX-1 mRNA in A549 cells; assay type: cell-based, human; conditions: quiescent A549 cells, 100 nM, 2, 4, or 8 h
Method: For reverse-transcriptase real-time PCR, RNA was isolated from cells or tissue, using the TRIzol reagent (GIBCO Invitrogen Corp., Carlsbad, Calif.), as directed by the manufacturer. The RNA concentration and integrity were assessed using an Agilent 2100 Bioanalyzer with an RNA 6000 nano LabChip (Agilent Technologies, Palo Alto, Calif.). Approximately 1 μg of total RNA was reverse transcribed using avian myeloblastosis virus reverse transcriptase (RT) in a 20 μL mixture containing deoxyribonucleotides, random hexamers and RNase inhibitor in RT buffer. Heating the RT reaction product at 95° C. terminated the reaction. For real-time polymerase chain reaction (PCR), 2 μL of the resultant cDNA was added to TaqMan Universal PCR Master Mix (Applied Biosystems, Foster City, Calif.) with a gene-specific primer/probe set (Applied Biosystems, Foster City, Calif.) and amplification was performed on an ABI 7000 Sequence Detection System. The mixtures were heated at 50° C. for 2 min, at 95° C. for 10 min followed by 40 cycles at 95° C. for 15 sec and 60° C. for 1 min. […] The results were quantified as Ct values, where Ct is defined as the threshold cycle of PCR at which amplified product is first detected, and expressed as the ratio of target/control (Relative Gene Expression).

[4] = system: caspase-3; experiment: Caspase-3 activity in A549 cell lysates, fluorometric assay; assay type: cell-based, human; conditions: A549 cells, 100 nM; maximal at 16 and 24 h
Method: The specificity of the activity of each caspase substrate was also verified by assays in the presence of specific inhibitors. […] Caspase-3 activity was measured by a fluorometric assay using Ac-DEVD-AFC (Acetylated-Asp-Glu-Val-Asp-7-amino-4-trifluoromethylcoumarin) (SEQ ID NO: 9) as a specific substrate for caspase-3 and Z-DEVD-CHO as a selective caspase-3 inhibitor. Caspase-8 activity was measured by a fluorometric assay using Ac-LETD-AFC (Acetylated-Leu-Glu-Thr-Asp-7-amino-4-trifluoromethylcoumarin) (SEQ ID NO: 10) as a specific substrate and Z-LETD-CHO as a selective caspase-8 inhibitor. The data are presented as relative fluorescence units (RFU).

[5] = system: SK-LU-1 cells; experiment: Gene array hybridization (Human Cancer 1.2 Atlas cDNA Expression Array) in SK-LU-1 cells; assay type: cell-based; conditions: SK-LU-1, 1% serum, 100 nM
Method: Cells were incubated for 2 or 8 h, and total RNA was isolated using the Atlas Pure Total RNA Labeling System (Clontech Laboratories, Inc). The RNA concentration was quantified by UV spectroscopy and any degradation was assessed by ethidium bromide staining intensity of 28S and 18S ribosomal RNA following agarose gel electrophoresis. RNA isolated from seven different cell passages was pooled prior to gene array analysis to account for individual variability in gene regulation. Radiolabeled cDNA, prepared from the pooled RNAs using the Atlas system, was incubated with DNase to degrade any residual DNA and then hybridized to the Human Cancer 1.2 Atlas cDNA Expression Array (Clonetech Laboratories, Inc). This gene array set contains 1,176 characterized human cDNAs on positively-charged nylon membranes.

[6] = system: ZR-75-1 breast cancer cells; conditions: U.S. Pat. No. 7,375,073; cited from earlier work
[7] = system: ERK2; conditions: SK-LU-1, 10 nM pretreatment; Gallagher et al., 2004; cited from earlier work
[8] = breast cancer patients, 30 minutes following subcutaneous injection, n=3, Rodgers 2005, cited from earlier work
[9] = adjuvant therapy for cytopenia during chemotherapy; Rodgers et al., 2005; cited from earlier work

## CC[C@H](C)[C@H](NC(=O)[C@H](Cc1ccc(O)cc1)NC(=O)[C@@H](NC(=O)[C@H](CCCNC(=N)N)NC(=O)[C@@H](N)CC(=O)O)C(C)C)C(=O)N[C@@H](Cc1c[nH]cn1)C(=O)N1CCC[C@H]1C(=O)O [Ang-(1-7), Asp-Arg-Val-Tyr-Ile-His-Pro]
[1]; 24 μg/kg/h infusion, 84 days, saline: abundant, robust staining
  Ki67 immunoreactivity in hyperplastic lesion: little immunoreactivity
[1]; 24 μg/kg/h intravenous infusion, 84 days
  adverse reactions or gross pathological abnormalities: No adverse reactions or gross pathological abnormalities
[1]; 24 μg/kg/h intravenous infusion, 84 days, n=8, saline 12.75±1.04
  lung tumor multiplicity: 6.4±0.87 tumors/mice
[1]; Ang-(1-7) infusion, n=7, saline 63.5±6.1 (n=8), percentage of total cell number per FIG. 16 legend
  CD34 positive cells in pulmonary lesions: 37.7±5.2
[1]; Ang-(1-7) infusion, n=7, saline 68.8±10.2% (n=8)
  proportion of COX-2 positive cells in hyperplasias and adenomas: 29.3±8.2%
[1]; Ki-ras/CCSP-rtTA bi-transgenic mice, FIG. 2
  reduction in the development of new tumors: about 50%
[1]; versus saline
  reduction in the proportion of COX-2 positive cells: ~50%
[1]; versus saline-treated animals
  reduction in CD34 positive cells: ~40%
[2]
  inhibition of tube formation: dose-dependent inhibition
[3]
  COX-1 mRNA: no change
[4]
  time-dependent increase in caspase-3 activity: about 2 fold
[5]
  expression of MEK5, ERK1, p21/K-ras 2B: reduced
  expression of p16^INK4a, menin, BAD, BAK, apoptotic protease activating factor 1: upregulated
[6]
  inhibition of PDGF- or EGF-stimulated ^3H-thymidine incorporation: at least 50%
[7]
  reduction of serum-stimulated phosphorylation of ERK2: 68%
[8]; 100 μg/kg/day
  plasma Ang-(1-7): 3209.5 pg/mL and 3.6 nM
[8]
  plasma Ang-(1-7): 49.43 pg/mL and 0.055 nM
[9]
  adverse side effects in patients: no adverse side effects
